What all share (format): biochemical
One assay deals with T1, c-KIT (Homo sapiens, UniProt P10721).
T1 construct: purchased Millipore 14-559K
The assay is described as follows: AlphaScreen kinase assay with recombinant enzyme, c-KIT. To be noted: 100ATP, 8pt, GMean. A digest of the protocol: (§1)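 Tyrosine phosphorylation of biotin-poly(Glu4-Tyr) substrate by recombinant enzyme is detected with PY20 acceptor and streptavidin donor beads after room-temperature incubations of 20 and 60 min. IC50 values were derived at a final 10 μM (FLT3-D835Y, FLT3-ITD) or 100 μM (c-KIT).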

The target in another assay is T2, FLT3-D835Y (Homo sapiens, UniProt P36888, D835Y).
T2 construct: purchased Invitrogen PV3967
T2 sequence (P36888 27-993 D835Y): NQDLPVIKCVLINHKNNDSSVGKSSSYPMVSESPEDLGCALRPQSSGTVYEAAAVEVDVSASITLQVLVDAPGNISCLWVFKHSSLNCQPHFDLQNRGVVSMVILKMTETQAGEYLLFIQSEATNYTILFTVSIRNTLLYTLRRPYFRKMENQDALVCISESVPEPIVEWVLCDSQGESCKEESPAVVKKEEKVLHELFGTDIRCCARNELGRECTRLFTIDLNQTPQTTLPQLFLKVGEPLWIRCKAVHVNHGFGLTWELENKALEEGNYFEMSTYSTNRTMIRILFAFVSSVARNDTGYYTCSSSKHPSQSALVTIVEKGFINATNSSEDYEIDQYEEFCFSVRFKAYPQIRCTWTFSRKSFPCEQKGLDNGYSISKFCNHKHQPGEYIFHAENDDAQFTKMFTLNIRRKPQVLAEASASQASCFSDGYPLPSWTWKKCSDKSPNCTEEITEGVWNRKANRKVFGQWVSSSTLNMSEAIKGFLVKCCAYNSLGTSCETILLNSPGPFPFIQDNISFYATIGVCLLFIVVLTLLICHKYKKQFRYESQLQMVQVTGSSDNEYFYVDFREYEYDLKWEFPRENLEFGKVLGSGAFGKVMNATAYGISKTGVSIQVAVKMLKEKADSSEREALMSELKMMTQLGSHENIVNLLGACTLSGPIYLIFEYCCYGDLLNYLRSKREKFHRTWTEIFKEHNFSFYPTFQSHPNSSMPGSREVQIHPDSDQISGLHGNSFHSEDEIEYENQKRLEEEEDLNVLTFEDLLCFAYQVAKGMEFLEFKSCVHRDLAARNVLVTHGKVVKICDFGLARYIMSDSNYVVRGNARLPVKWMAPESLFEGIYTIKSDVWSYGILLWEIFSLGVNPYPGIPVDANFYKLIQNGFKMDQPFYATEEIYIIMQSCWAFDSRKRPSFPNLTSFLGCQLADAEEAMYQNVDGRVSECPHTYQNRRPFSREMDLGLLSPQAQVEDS
Description: AlphaScreen kinase assay with recombinant enzyme, FLT3-D835Y. To be noted: 8pt, GMean. A digest of the protocol:
as §1

Another assay addresses T3, FLT3-ITD (Homo sapiens, UniProt P36888).
T3 sequence (P36888 1-993): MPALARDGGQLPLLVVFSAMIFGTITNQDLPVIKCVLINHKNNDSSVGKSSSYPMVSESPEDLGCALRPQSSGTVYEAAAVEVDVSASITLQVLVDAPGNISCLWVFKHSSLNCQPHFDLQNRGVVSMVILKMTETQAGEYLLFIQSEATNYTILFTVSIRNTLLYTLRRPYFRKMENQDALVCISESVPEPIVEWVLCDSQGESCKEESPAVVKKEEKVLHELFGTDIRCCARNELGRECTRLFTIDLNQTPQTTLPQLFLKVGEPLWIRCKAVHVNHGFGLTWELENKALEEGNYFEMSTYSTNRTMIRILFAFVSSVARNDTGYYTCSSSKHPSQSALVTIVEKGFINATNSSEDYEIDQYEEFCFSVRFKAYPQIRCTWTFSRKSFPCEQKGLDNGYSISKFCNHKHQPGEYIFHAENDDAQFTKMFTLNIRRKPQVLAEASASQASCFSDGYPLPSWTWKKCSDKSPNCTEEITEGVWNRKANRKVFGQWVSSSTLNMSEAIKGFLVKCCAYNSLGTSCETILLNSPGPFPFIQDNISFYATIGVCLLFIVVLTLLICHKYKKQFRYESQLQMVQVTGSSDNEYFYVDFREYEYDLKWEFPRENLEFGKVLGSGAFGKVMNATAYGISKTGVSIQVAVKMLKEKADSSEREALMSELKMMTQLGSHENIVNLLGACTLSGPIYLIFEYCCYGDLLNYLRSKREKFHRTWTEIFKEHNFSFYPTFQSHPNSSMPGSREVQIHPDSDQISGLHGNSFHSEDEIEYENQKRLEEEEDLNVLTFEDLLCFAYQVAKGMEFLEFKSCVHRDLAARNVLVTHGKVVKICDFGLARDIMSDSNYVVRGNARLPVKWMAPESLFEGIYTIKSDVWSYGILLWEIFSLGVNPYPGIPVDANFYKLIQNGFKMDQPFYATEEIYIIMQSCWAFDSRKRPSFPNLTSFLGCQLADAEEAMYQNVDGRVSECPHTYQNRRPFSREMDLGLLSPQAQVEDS
The assay is described as follows: AlphaScreen kinase assay with recombinant enzyme, FLT3-ITD. To be noted: 8pt; read-out: FLT3_ITD 8pt: IC50. In a few lines: as §1

pIC50: −log10 of the molar value.

T1 sequence (P10721 26-976): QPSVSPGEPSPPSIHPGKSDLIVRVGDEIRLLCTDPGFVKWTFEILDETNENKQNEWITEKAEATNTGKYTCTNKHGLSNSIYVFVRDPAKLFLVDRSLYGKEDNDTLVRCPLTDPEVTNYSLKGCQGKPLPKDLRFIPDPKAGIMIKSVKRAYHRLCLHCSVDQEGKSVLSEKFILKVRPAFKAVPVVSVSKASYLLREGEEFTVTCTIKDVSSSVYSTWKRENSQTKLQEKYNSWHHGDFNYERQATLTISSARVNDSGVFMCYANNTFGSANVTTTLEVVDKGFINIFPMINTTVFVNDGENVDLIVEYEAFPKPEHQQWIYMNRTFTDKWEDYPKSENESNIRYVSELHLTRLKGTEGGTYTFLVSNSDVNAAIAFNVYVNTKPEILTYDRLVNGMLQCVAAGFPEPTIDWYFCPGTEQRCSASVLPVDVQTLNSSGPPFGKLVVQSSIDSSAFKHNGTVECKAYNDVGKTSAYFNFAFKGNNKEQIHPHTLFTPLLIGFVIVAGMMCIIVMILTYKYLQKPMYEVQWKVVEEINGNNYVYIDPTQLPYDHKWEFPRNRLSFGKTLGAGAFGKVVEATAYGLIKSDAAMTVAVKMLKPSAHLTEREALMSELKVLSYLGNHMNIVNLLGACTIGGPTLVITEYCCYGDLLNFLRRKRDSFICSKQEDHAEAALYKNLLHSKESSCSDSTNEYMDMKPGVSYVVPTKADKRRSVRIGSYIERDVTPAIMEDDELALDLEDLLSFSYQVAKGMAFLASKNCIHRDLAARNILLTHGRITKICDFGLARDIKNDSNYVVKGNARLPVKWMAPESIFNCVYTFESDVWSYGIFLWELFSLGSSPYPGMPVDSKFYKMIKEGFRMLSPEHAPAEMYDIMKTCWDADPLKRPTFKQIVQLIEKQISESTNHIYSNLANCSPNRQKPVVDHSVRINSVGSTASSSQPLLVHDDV

`CONC(=O)c1cccc(-c2cnc3[nH]c(-c4ccccc4)cc3c2)c1` [Compound P-0003, N-methoxy-3-(2-phenyl-1H-pyrrolo[2,3-b]pyridin-5-yl)benzamide]: the pIC50 at c-KIT, on FLT3-D835Y and on FLT3-ITD was 5.00 to 10.00 in each case.

For the compound `C#Cc1cc2cc(-c3cccc(S(=O)(=O)NC4CC4)c3)cnc2[nH]1` [Compound P-0004, N-cyclopropyl-3-(2-ethynyl-1H-pyrrolo[2,3-b]pyridin-5-yl)benzenesulfonamide], the pIC50 on c-KIT and on FLT3-D835Y was 5.00 to 10.00 throughout.

Regarding `NC(=O)Nc1ccc(-c2cnc3[nH]c(-c4ccccc4)cc3c2)cc1` [Compound P-0005, [4-(2-phenyl-1H-pyrrolo[2,3-b]pyridin-5-yl)phenyl]urea], the pIC50 is 5.00 to 10.00 on c-KIT, 4.30 to 5.00 at FLT3-D835Y and 5.00 to 10.00 on FLT3-ITD.

Take `CNC(=O)Nc1ccc(-c2cnc3[nH]c(-c4ccccc4)cc3c2)cc1` [Compound P-0006, 1-methyl-3-[4-(2-phenyl-1H-pyrrolo[2,3-b]pyridin-5-yl)phenyl]urea]: the negative logarithm of the IC50 (pIC50) at c-KIT, on FLT3-D835Y and at FLT3-ITD was 5.00 to 10.00 throughout.

Consider `CN(C)S(=O)(=O)Nc1cccc(-c2cnc3[nH]c(-c4ccccc4)cc3c2)c1` [Compound P-0007, 5-[3-(dimethylsulfamoylamino)phenyl]-2-phenyl-1H-pyrrolo[2,3-b]pyridine], for which the pIC50 is 4.30 to 5.00 on c-KIT and 5.00 to 10.00 on FLT3-D835Y.

For the compound `NC1CCN(C(=O)c2n[nH]c3ccc(-c4cnc5[nH]c(-c6ccccc6)cc5c4)cc23)CC1` [Compound P-0012, (4-amino-1-piperidyl)-[5-(2-phenyl-1H-pyrrolo[2,3-b]pyridin-5-yl)-1H-indazol-3-yl]methanone], the pIC50 on c-KIT, on FLT3-D835Y and on FLT3-ITD was 5.00 to 10.00 throughout.

As to `NC1CCN(C(=O)c2cccc(-c3cnc4[nH]c(-c5ccccc5)cc4c3)n2)CC1` [Compound P-0013, (4-amino-1-piperidyl)-[6-(2-phenyl-1H-pyrrolo[2,3-b]pyridin-5-yl)-2-pyridyl]methanone], the pIC50 on c-KIT, on FLT3-D835Y and on FLT3-ITD was 5.00 to 10.00 each time.

As to `N[C@H]1CCN(C(=O)c2cccc(-c3cnc4[nH]c(-c5ccccc5)cc4c3)n2)C1` [Compound P-0015, [(3S)-3-aminopyrrolidin-1-yl]-[6-(2-phenyl-1H-pyrrolo[2,3-b]pyridin-5-yl)-2-pyridyl]methanone], the pIC50 on c-KIT, at FLT3-D835Y and on FLT3-ITD was 5.00 to 10.00 in each case.

For the compound `N[C@H]1CCN(C(=O)c2n[nH]c3ccc(-c4cnc5[nH]c(-c6ccccc6)cc5c4)cc23)C1` [Compound P-0016, [(3S)-3-aminopyrrolidin-1-yl]-[5-(2-phenyl-1H-pyrrolo[2,3-b]pyridin-5-yl)-1H-indazol-3-yl]methanone], the pIC50 at c-KIT, on FLT3-D835Y and at FLT3-ITD was 5.00 to 10.00 throughout.

Consider `CC(C)(C)OC(=O)NC1CCN(C(=O)c2cccc(-c3cnc4[nH]c(-c5ccccc5)cc4c3)n2)CC1` [Compound P-0017, tert-butyl N-[1-[6-(2-phenyl-1H-pyrrolo[2,3-b]pyridin-5-yl)pyridine-2-carbonyl]-4-piperidyl]carbamate], for which the pIC50 at c-KIT is 4.30 to 5.00; at FLT3-D835Y, 5.00 to 10.00; at FLT3-ITD, 5.00 to 10.00.

`CC(=O)NC1CCN(C(=O)c2n[nH]c3ccc(-c4cnc5[nH]c(-c6ccccc6)cc5c4)cc23)CC1` [Compound P-0021, N-[1-[5-(2-phenyl-1H-pyrrolo[2,3-b]pyridin-5-yl)-1H-indazole-3-carbonyl]-4-piperidyl]acetamide]: the pIC50 at c-KIT was 4.00 to 4.30; at FLT3-D835Y it was 5.00 to 10.00.

On to `CC(C)(C#N)NC(=O)c1cccc(-c2cnc3[nH]c(-c4ccc(N5CCOCC5)nc4)cc3c2)n1` [Compound P-0197, N-(1-cyano-1-methyl-ethyl)-6-[2-(6-morpholino-3-pyridyl)-1H-pyrrolo[2,3-b]pyridin-5-yl]pyridine-2-carboxamide], for which the pIC50 at FLT3-D835Y and on FLT3-ITD was 5.00 to 10.00 in each case.

As to `CC(C)(C#N)NC(=O)c1cccc(-c2cnc3[nH]c(-c4cnc(N5CCOCC5)nc4)cc3c2)n1` [Compound P-0198, N-(1-cyano-1-methyl-ethyl)-6-[2-(2-morpholinopyrimidin-5-yl)-1H-pyrrolo[2,3-b]pyridin-5-yl]pyridine-2-carboxamide], the negative logarithm of the IC50 (pIC50) on FLT3-D835Y and on FLT3-ITD was 5.00 to 10.00 throughout.

Turning to `CC(C)(C#N)NC(=O)c1cccc(-c2cnc3[nH]c(-c4cccc(N5CCCS5(=O)=O)c4)cc3c2)n1` [Compound P-0199, N-(1-cyano-1-methyl-ethyl)-6-[2-[3-(1,1-dioxo-1,2-thiazolidin-2-yl)phenyl]-1H-pyrrolo[2,3-b]pyridin-5-yl]pyridine-2-carboxamide], the pIC50 at FLT3-D835Y and at FLT3-ITD was 5.00 to 10.00 each time.

On to `CC(C)(NC(=O)c1cccc(-c2cnc3[nH]c(-c4cnn(C5CCNCC5)c4)cc3c2)n1)C(N)=O` [Compound P-0200, N-(2-amino-1,1-dimethyl-2-oxo-ethyl)-6-[2-[1-(4-piperidyl)pyrazol-4-yl]-1H-pyrrolo[2,3-b]pyridin-5-yl]pyridine-2-carboxamide], for which the negative-log IC50 (pIC50) at FLT3-D835Y and at FLT3-ITD was 5.00 to 10.00 in each case.

`CC(C)(C#N)NC(=O)c1cccc(-c2cnc3[nH]c(-c4cnc(N5CCCC5)nc4)cc3c2)n1` [Compound P-0202, N-(1-cyano-1-methyl-ethyl)-6-[2-(2-pyrrolidin-1-ylpyrimidin-5-yl)-1H-pyrrolo[2,3-b]pyridin-5-yl]pyridine-2-carboxamide]: the pIC50 at FLT3-D835Y and on FLT3-ITD was 5.00 to 10.00 throughout.

As for `CCOc1ncc(-c2cc3cc(-c4cccc(C(=O)NC(C)(C)C#N)n4)cnc3[nH]2)cn1` [Compound P-0203, N-(1-cyano-1-methyl-ethyl)-6-[2-(2-ethoxypyrimidin-5-yl)-1H-pyrrolo[2,3-b]pyridin-5-yl]pyridine-2-carboxamide], the pIC50 on FLT3-D835Y and at FLT3-ITD was 5.00 to 10.00 throughout.

As to `CCc1ncc(-c2cc3cc(-c4cccc(C(=O)NC(C)(C)C#N)n4)cnc3[nH]2)cn1` [Compound P-0205, N-(1-cyano-1-methyl-ethyl)-6-[2-(2-ethylpyrimidin-5-yl)-1H-pyrrolo[2,3-b]pyridin-5-yl]pyridine-2-carboxamide], the pIC50 on FLT3-D835Y and at FLT3-ITD was 5.00 to 10.00 throughout.

On to `CCCOc1ncc(-c2cc3cc(-c4cccc(C(=O)NC(C)(C)C#N)n4)cnc3[nH]2)cn1` [Compound P-0206, N-(1-cyano-1-methyl-ethyl)-6-[2-(2-propoxypyrimidin-5-yl)-1H-pyrrolo[2,3-b]pyridin-5-yl]pyridine-2-carboxamide], for which the pIC50 on FLT3-D835Y and at FLT3-ITD was 5.00 to 10.00 in each case.
